Test results: PubChem BioAssay (NCI)
Several values for one entry are separate records, joined by “and”; a condition that tells them apart may be missing. Equal values may be shown once.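 Interpolation was linear, between the two tested concentrations surrounding the appropriate level; five concentrations were tested over 48 hours in 96-well plates. Here, GI50 denotes the concentration required for 50% inhibition of growth. At the TGI there is no net growth.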

Columns and labels:
Experiment in all cases: growth of human tumour cells (NCI), 48 h
MDA-MB-231 breast = tested on: MDA-MB-231 breast
SNB-75 CNS = tested on: SNB-75 CNS
A549 NSCLC = tested on: A549 NSCLC
SNB-19 CNS = tested on: SNB-19 CNS
U251 CNS = tested on: U251 CNS
HCT-15 colon = tested on: HCT-15 colon
EKVX NSCLC = tested on: EKVX NSCLC
NCI/ADR-RES ovarian = tested on: NCI/ADR-RES ovarian
SF-539 CNS = tested on: SF-539 CNS
NCI-H460 lung = tested on: NCI-H460 lung
OVCAR-5 ovarian = tested on: OVCAR-5 ovarian
CCRF-CEM leukemia = tested on: CCRF-CEM leukemia
SK-MEL-2 melanoma = tested on: SK-MEL-2 melanoma
NCI-H522 lung = tested on: NCI-H522 lung
BT-549 breast = tested on: BT-549 breast
UACC-257 melanoma = tested on: UACC-257 melanoma
DU-145 prostate = tested on: DU-145 prostate
M14 melanoma = tested on: M14 melanoma
TK-10 renal = tested on: TK-10 renal
HT29 colon = tested on: HT29 colon
OVCAR-4 ovarian = tested on: OVCAR-4 ovarian
SK-MEL-5 melanoma = tested on: SK-MEL-5 melanoma
786-0 renal = tested on: 786-0 renal
KM12 colon = tested on: KM12 colon
SN12C renal = tested on: SN12C renal
HS 578T breast = tested on: HS 578T breast
IGROV1 ovarian = tested on: IGROV1 ovarian
RPMI-8226 leukemia = tested on: RPMI-8226 leukemia
HL-60(TB) leukemia = tested on: HL-60(TB) leukemia
COLO 205 colon = tested on: COLO 205 colon
SR leukemia = tested on: SR leukemia
NCI-H23 lung = tested on: NCI-H23 lung
UACC-62 melanoma = tested on: UACC-62 melanoma
SK-MEL-28 melanoma = tested on: SK-MEL-28 melanoma
PC-3 prostate = tested on: PC-3 prostate
SW-620 colon = tested on: SW-620 colon
MALME-3M melanoma = tested on: MALME-3M melanoma
ACHN renal = tested on: ACHN renal
HOP-92 NSCLC = tested on: HOP-92 NSCLC
MOLT-4 leukemia = tested on: MOLT-4 leukemia
NCI-H226 lung = tested on: NCI-H226 lung
RXF 393 renal = tested on: RXF 393 renal
HCT-116 colon = tested on: HCT-116 colon
MCF7 breast = tested on: MCF7 breast
A498 renal = tested on: A498 renal
OVCAR-3 ovarian = tested on: OVCAR-3 ovarian
T-47D breast = tested on: T-47D breast
UO-31 renal = tested on: UO-31 renal
HCC-2998 colon = tested on: HCC-2998 colon
SF-295 CNS = tested on: SF-295 CNS
MDA-MB-435 = tested on: MDA-MB-435
LOX IMVI melanoma = tested on: LOX IMVI melanoma
K-562 leukemia = tested on: K-562 leukemia
HOP-62 NSCLC = tested on: HOP-62 NSCLC
SK-OV-3 ovarian = tested on: SK-OV-3 ovarian
OVCAR-8 ovarian = tested on: OVCAR-8 ovarian

## c1cc(CNC2C3CCC(C3)C2c2c[nH]c3ccccc23)cc(CNC2C3CCC(C3)C2c2c[nH]c3ccccc23)c1 (stereo unspecified)
MDA-MB-231 breast
  TGI: 2.81 µM
SNB-75 CNS
  TGI: 1.21 µM
A549 NSCLC
  TGI: > 100 µM
SNB-19 CNS
  TGI: 2.26 µM
U251 CNS
  TGI: 1.32 µM
HCT-15 colon
  GI50: 0.325 µM and 0.301 µM
  TGI: 1.01 µM and 1.12 µM
EKVX NSCLC
  TGI: 3.34 µM
NCI/ADR-RES ovarian
  GI50: 1.21 µM and 0.607 µM
  TGI: 2.6 µM and 1.99 µM
SF-539 CNS
  GI50: 1.89 µM and 1.74 µM
  TGI: 3.39 µM and 3.17 µM
NCI-H460 lung
  GI50: 0.313 µM
  TGI: > 100 µM
OVCAR-5 ovarian
  TGI: 3.39 µM and 3.4 µM
CCRF-CEM leukemia
  TGI: > 100 µM
SK-MEL-2 melanoma
  TGI: 3.11 µM
NCI-H522 lung
  TGI: 2.76 µM
BT-549 breast
  TGI: 3.24 µM
UACC-257 melanoma
  GI50: 2 µM
  TGI: 3.82 µM
DU-145 prostate
  TGI: 2.3 µM
M14 melanoma
  TGI: 5.3 µM
TK-10 renal
  TGI: 3.39 µM
HT29 colon
  GI50: 0.331 µM and 0.154 µM
OVCAR-4 ovarian
  TGI: 3.24 µM and 3.34 µM
SK-MEL-5 melanoma
  TGI: 3.29 µM
786-0 renal
  GI50: 14.2 µM
  TGI: 27.3 µM
KM12 colon
  TGI: 4.04 µM
SN12C renal
  GI50: 14.5 µM
  TGI: 31.5 µM
HS 578T breast
  TGI: 3.32 µM
IGROV1 ovarian
  TGI: 2.69 µM
RPMI-8226 leukemia
  TGI: > 100 µM
HL-60(TB) leukemia
  GI50: 1.6 µM
  TGI: 4.21 µM
COLO 205 colon
  GI50: 1.54 µM
  TGI: 3.03 µM
SR leukemia
  TGI: 0.773 µM
NCI-H23 lung
  GI50: 1.47 µM
  TGI: 3.34 µM and 2.88 µM
UACC-62 melanoma
  TGI: 3.04 µM
SK-MEL-28 melanoma
  GI50: 1.01 µM and 0.343 µM
  TGI: 2.3 µM and 1.51 µM
PC-3 prostate
  TGI: 2.7 µM
SW-620 colon
  GI50: 2.11 µM and 0.386 µM
  TGI: > 100 µM
MALME-3M melanoma
  TGI: 3.45 µM
ACHN renal
  TGI: 2.04 µM
HOP-92 NSCLC
  GI50: 1.09 µM and 1.29 µM
  TGI: 2.33 µM and 2.63 µM
MOLT-4 leukemia
  GI50: 1.07 µM
  TGI: 3.38 µM

## CCc1ccc2c(c1)CC1(C2)Cc2cc3c(cc2C1)C(=O)CC3 (stereo unspecified)
MDA-MB-231 breast
  TGI: 87.7 µM
A549 NSCLC
  TGI: 71.8 µM
U251 CNS
  TGI: > 100 µM
HCT-15 colon
  TGI: 67.3 µM
EKVX NSCLC
  TGI: > 100 µM
NCI/ADR-RES ovarian
  TGI: > 100 µM
SF-539 CNS
  TGI: 61.4 µM
NCI-H226 lung
  TGI: 67 µM
OVCAR-5 ovarian
  TGI: > 100 µM
CCRF-CEM leukemia
  TGI: 8.31 µM
SK-MEL-2 melanoma
  TGI: 16.8 µM
RXF 393 renal
  TGI: > 100 µM
NCI-H522 lung
  TGI: 57.3 µM
HCT-116 colon
  TGI: 29.9 µM
UACC-257 melanoma
  TGI: 51.6 µM
MCF7 breast
  TGI: > 100 µM
A498 renal
  TGI: 46.4 µM
M14 melanoma
  TGI: > 100 µM
OVCAR-3 ovarian
  TGI: 42.8 µM
TK-10 renal
  TGI: > 100 µM
HT29 colon
  TGI: 23.9 µM
OVCAR-4 ovarian
  TGI: 65.4 µM
T-47D breast
  TGI: 85 µM
SK-MEL-5 melanoma
  TGI: 16.9 µM
786-0 renal
  TGI: 60.2 µM
UO-31 renal
  TGI: 92.9 µM
HCC-2998 colon
  TGI: 47.1 µM
KM12 colon
  TGI: > 100 µM
SN12C renal
  TGI: 89.6 µM
HS 578T breast
  TGI: > 100 µM
IGROV1 ovarian
  TGI: > 100 µM
RPMI-8226 leukemia
  TGI: 50.7 µM
SF-295 CNS
  TGI: 65.3 µM
MDA-MB-435
  TGI: 8.53 µM
HL-60(TB) leukemia
  TGI: 15.6 µM
LOX IMVI melanoma
  TGI: 37 µM
K-562 leukemia
  TGI: 11.9 µM
COLO 205 colon
  TGI: 17.5 µM
NCI-H23 lung
  TGI: 96.6 µM
UACC-62 melanoma
  TGI: > 100 µM
HOP-62 NSCLC
  TGI: 78.5 µM
PC-3 prostate
  TGI: 64.1 µM
SK-OV-3 ovarian
  TGI: > 100 µM
OVCAR-8 ovarian
  TGI: 64.9 µM
MALME-3M melanoma
  TGI: 57.1 µM
ACHN renal
  TGI: 63.9 µM
HOP-92 NSCLC
  TGI: 52.7 µM
